The subject of the assay is LDLR protein levels in HepG2 cells. Briefly: Western blot analysis of relative LDLR protein levels in HepG2 cells after treatment. The settings on record: HepG2 cells incubated overnight with compound, 0.2 μM to 20 μM. Format: cell-based, human. Here is the method:
Cell culture, treatments and cell viability assay. For phenotypic screening of PCSK9 modulators and/or LDLR small molecule inducers, human HepG2 cells were incubated overnight in conditioned media containing chemical compounds resuspended in DMSO at concentration ranging from 0.2 μM to 20 μM. […] Following incubation, media have been replaced and cells incubated for 4 h with 100 μL of phenol red-free DMEM containing 0.5 mg/mL of MTT (3-[4,5-dimethylthiazol-2-yl]-2,5-diphenyltetrazolium bromide; thiazolyl blue; catalog no. M5655, Sigma-Aldrich), following manufacturer's instructions.
Western Blot Analysis, Immunocytochemistry and LDLR Activity Assay. Following incubation, cells were washed three times in phosphate-buffered saline (PBS) and lysed in radioimmune precipitation assay buffer (50 mM Tris/HCl, pH 8.0, 1% (v/v) Nonidet P-40, 0.5% sodium deoxycholate, 150 mM NaCl, and 0.1% (v/v) SDS) supplemented with a complete protease inhibitor mixture (catalog no. 11 697 498 001, Roche Applied Science). Proteins were separated by SDS polyacrylamide gel electrophoresis, blotted on nitrocellulose membranes (Bio-Rad), blocked incubated with indicated antibodies as described (Poirier S, et al., Cell Rep, 2015). For immunocytochemistry analysis, cells were permeabilized or not with 0.1% Triton X-100/PBS for 10 min, and incubated with 150 mM glycine, blocked and incubated with indicated primary and secondary antibodies. Immunofluorescence analyses were performed with an Olympus FluoView FV10i confocal microscope (Poirier et al., Cell Rep. 2015; 13(10):2064-2071). For LDLR activity assay, HepG2 cells were incubated overnight without or with a given compound in the presence of 5 μg/ml fluorescent labelled DiI-LDL (Alfa Aesar, Cat. #J65330) and co-stained for LDLR if applicable, as described (Poirier et al., J Biol Chem. 2009; 284(42):28856-28864). Immunofluorescence analyses were performed with an Olympus FluoView FV10i confocal microscope.
A general note: In western blotting, separated proteins are transferred to a membrane and probed.

Regarding `Cc1cc(C(=O)N2CCC[C@H](c3ccc(C(=O)O)cc3)C2)c2ccc(F)cc2n1` (stereo in doubt) [Compound 49, 4-[1-(7-fluoro-2-methylquinoline-4-carbonyl)piperidin-3-yl]benzoic acid], the “LDLR Fold (relative LDLR protein levels)” value was found to be 1.6 Fold.

On to `Cc1cccc(C(=O)N2CCC[C@H](Cn3cc(C(C)(C)N)nn3)C2)c1C` (stereo in doubt) [Compound 50, 2-(1-{[1-(2,3-dimethylbenzoyl)piperidin-3-yl]methyl}-1H-1,2,3-triazol-4-yl)propan-2-amine], for which the “LDLR Fold (relative LDLR protein levels)” value turned out to be 1.1 Fold.

For the compound `COc1ccccc1[C@H]1N=C(N2CCC(Cc3ccccc3)CC2)N=C2N=C(C)C=C(O)N21` (stereo in doubt) [Compound 52, 2-(4-benzylpiperidin-1-yl)-4-(2-methoxyphenyl)-8-methyl-4H-pyrimido[1,2-a][1,3,5]triazin-6-ol], the “LDLR Fold (relative LDLR protein levels)” value worked out at 0.7 Fold.

As to `C[C@H](NC(=O)[C@@H]1Cc2c([nH]c3ccccc23)[C@H]2c3ccccc3C(=O)N21)C(=O)NC1CCCC1` [Compound 1, (2S)—N-cyclopentyl-2-{[(11 S)-9-oxo-10,20-diazapentacyclo[11.7.0.0^2,^10.0^3,^8.0^14,^19]icosa-1(13),3,5,7,14,16,18-heptaen-11-yl]formamido}propanamide], the “LDLR Fold (relative LDLR protein levels)” value was determined as 1.2 ± 0.2 Fold.

Take `Cc1nn(CC(=O)N2CCc3c([nH]c4ccccc34)[C@H]2c2ccccn2)c(=O)c2ccccc12` [Compound 2, 4-methyl-2-{2-oxo-2-[1-(2-pyridinyl)-1,3,4,9-tetrahydro-2H-beta-carbolin-2-yl]ethyl}-1(2H)-phthalazinone]: the “LDLR Fold (relative LDLR protein levels)” value came to 1.0 ± 0.5 Fold.

On to `O=C(Cn1[nH]c(=O)c2ccccc2c1=O)Nc1ccc(N2C(=O)c3cccc4cccc(c34)C2=O)cc1` [Compound 4, 2-(1,4-dioxo-1,2,3,4-tetrahydrophthalazin-2-yl)-N-(4-{2,4-dioxo-3-azatricyclo[7.3.1.0^{5,13}]trideca-1(13),5,7,9,11-pentaen-3-yl}phenyl)acetamide], for which the “LDLR Fold (relative LDLR protein levels)” value amounted to 1.6 ± 0.2 Fold.

On to `CC(=O)N1CCC2(CC1)CC(=O)c1ccc(OCC(=O)N3CCc4ccccc43)cc1O2` [Compound 6, 1′-acetyl-7-[2-(2,3-dihydro-1H-indol-1-yl)-2-oxoethoxy]-3,4-dihydrospiro[1-benzopyran-2,4′-piperidin]-4-one], for which the “LDLR Fold (relative LDLR protein levels)” value amounted to 0.8 ± 0.3 Fold.

Turning to `O=C(c1cn(CCN2CCCCC2)nn1)N1CCC2(C=Cc3ccccc32)CC1` [Compound 9, 1′-{1-[2-(piperidin-1-yl)ethyl]-1H-1,2,3-triazole-4-carbonyl}spiro[indene-1,4′-piperidine]], the “LDLR Fold (relative LDLR protein levels)” value is reported as 0.4 ± 0.1 Fold.

For `CC1(c2ccc3ccccc3c2)NC(=O)N(CC(=O)N2CCCCC2c2nc3ccccc3s2)C1=O` (stereo not drawn) [Compound 11, 3-{2-[2-(1,3-benzothiazol-2-yl)piperidin-1-yl]-2-oxoethyl}-5-methyl-5-(naphthalen-2-yl)imidazolidine-2,4-dione], the “LDLR Fold (relative LDLR protein levels)” value was found to be 1.5 ± 0.4 Fold.

Regarding `CC1(c2ccc3ccccc3c2)NC(=O)N(CC(=O)N2CCCC(c3nc4ccccc4s3)C2)C1=O` (stereo not drawn) [Compound 12, 3-{2-[3-(1,3-benzothiazol-2-yl)piperidin-1-yl]-2-oxoethyl}-5-methyl-5-(naphthalen-2-yl)imidazolidine-2,4-dione], the “LDLR Fold (relative LDLR protein levels)” value is reported as 1.8 ± 0.6 Fold.

Consider `CC1(c2ccc3ccccc3c2)NC(=O)N(CC(=O)N2CCC(c3nc4ccccc4s3)CC2)C1=O` (stereo not drawn) [Compound 13, 3-{2-[4-(1,3-benzothiazol-2-yl)piperidin-1-yl]-2-oxoethyl}-5-methyl-5-(naphthalen-2-yl)imidazolidine-2,4-dione], for which the “LDLR Fold (relative LDLR protein levels)” value amounted to 1.5 ± 0.7 Fold.

On to `Cc1ccc(-c2cc(C(=O)N3CCc4c([nH]c5ccccc45)C3c3ccccn3)[nH]n2)s1` (stereo not drawn) [Compound 25, 2-{[3-(5-methyl-2-thienyl)-1H-pyrazol-5-yl]carbonyl}-1-(2-pyridinyl)-2,3,4,9-tetrahydro-1H-beta-carboline], for which the “LDLR Fold (relative LDLR protein levels)” value is 1.1 Fold.

Take `Cc1cccc(C2c3[nH]c4ccccc4c3CCN2C(=O)CCCN2CCCCC2=O)n1` (stereo not drawn) [Compound 28, 1-{4-[1-(6-methylpyridin-2-yl)-1H,2H,3H,4H,9H-pyrido[3,4-b]indol-2-yl]-4-oxobutyl}piperidin-2-one]: the “LDLR Fold (relative LDLR protein levels)” value is 1.0 Fold.

Turning to `COc1ccccc1C1N=C(Nc2cccc(C)c2C)N=C2N=C(C)C=C(O)N21` (stereo not drawn) [Compound 32, 2-[(2,3-dimethylphenyl)amino]-4-(2-methoxyphenyl)-8-methyl-4H-pyrimido[1,2-a][1,3,5]triazin-6-ol], the “LDLR Fold (relative LDLR protein levels)” value came out at 0.8 Fold.

`COc1ccccc1[C@H]1N=C(N2CCN(c3cccc(Cl)c3)CC2)N=C2N=C(C)C=C(O)N21` [Compound 33, 2-[4-(3-chlorophenyl)piperazin-1-yl]-4-(2-methoxyphenyl)-8-methyl-1,4-dihydro-6H-pyrimido[1,2-a][1,3,5]triazin-6-ol]: the “LDLR Fold (relative LDLR protein levels)” value turned out to be 1.0 Fold.

As to `O=C(CN1CCN(c2nnc(-c3ccccc3)c3ccccc23)CC1)N1CCCC1` [Compound 35, 2-[4-(4-phenylphthalazin-1-yl)piperazin-1-yl]-1-(pyrrolidin-1-yl)ethan-1-one], the “LDLR Fold (relative LDLR protein levels)” value turned out to be 0.9 Fold.

As to `Cc1ccc(-c2nnc(N3CCN(C(=O)CN4C(=O)c5ccccc5C4=O)CC3)c3ccccc23)cc1` [Compound 36, 2-(2-{4-[4-(4-methylphenyl)phthalazin-1-yl]piperazin-1-yl}-2-oxoethyl)-2,3-dihydro-1H-isoindole-1,3-dione], the “LDLR Fold (relative LDLR protein levels)” value is listed as 0.8 Fold.

With `Cc1ccc(-c2nnc(N3CCN(C(=O)Cn4c(=O)n(C)c5ccccc54)CC3)c3ccccc23)cc1` [Compound 37, 1-methyl-3-(2-{4-[4-(4-methylphenyl)phthalazin-1-yl]piperazin-1-yl}-2-oxoethyl)-2,3-dihydro-1H-1,3-benzodiazol-2-one], the “LDLR Fold (relative LDLR protein levels)” value is listed as 1.0 Fold.

On to `O=C(CN1C(=O)c2ccccc2C1=O)N1CCN(c2nnc(-c3ccccc3)c3ccccc23)CC1` [Compound 38, 2-{2-oxo-2-[4-(4-phenylphthalazin-1-yl)piperazin-1-yl]ethyl}-2,3-dihydro-1H-isoindole-1,3-dione], for which the “LDLR Fold (relative LDLR protein levels)” value worked out at 0.9 Fold.

As to `Cc1ccc(-c2nnc(N3CCN(C(=O)c4ccco4)CC3)c3ccccc23)cc1` [Compound 39, 1-[4-(furan-2-carbonyl)piperazin-1-yl]-4-(4-methylphenyl)phthalazine], the “LDLR Fold (relative LDLR protein levels)” value is 0.9 Fold.

For the compound `CC1CCN(CC(=O)N2CCN(c3nnc(-c4ccccc4)c4ccccc34)CC2)CC1` [Compound 40, 2-(4-methylpiperidin-1-yl)-1-[4-(4-phenylphthalazin-1-yl)piperazin-1-yl]ethan-1-one], the “LDLR Fold (relative LDLR protein levels)” value is 0.9 Fold.

`c1ccc2c(N3CCN(Cc4ccc5c(c4)OCO5)CC3)nnc(Cc3ccncc3)c2c1` [Compound 41, 1-{4-[(2H-1,3-benzodioxol-5-yl)methyl]piperazin-1-yl}-4-[(pyridin-4-yl)methyl]phthalazine]: the “LDLR Fold (relative LDLR protein levels)” value turned out to be 0.7 Fold.

Take `O=C(CN1CCOCC1)N1CCN(c2nnc(-c3ccccc3)c3ccccc23)CC1` [Compound 43, 2-(morpholin-4-yl)-1-[4-(4-phenylphthalazin-1-yl)piperazin-1-yl]ethan-1-one]: the “LDLR Fold (relative LDLR protein levels)” value is given as 0.9 Fold.

For the compound `Cc1cc(C(=O)N2CCCC(C(=O)Nc3ccccc3)C2)c2ccccc2n1` (stereo not drawn) [Compound 51, 1-(2-methylquinoline-4-carbonyl)-N-phenylpiperidine-3-carboxamide], the “LDLR Fold (relative LDLR protein levels)” value worked out at 1.2 Fold.
